PubChem BioAssay AID330 (DTP/NCI, 2004)
Several values for one entry are separate records, joined by “and”; a condition that tells them apart may be missing. Identical values can stand only once. Inconclusive results and toxic doses are left out. Peptide text beside a SMILES is read from it.

Tested on: P388 leukemia ip, CD2F1 mice, survival T/C
Assay: NCI In Vivo Anticancer Drug Screen. Data for tumor model P388 Leukemia (intraperitoneal) in CD2F1 (CDF1) mice
Conditions: endpoint: median survival time, higher = longer survival
Procedure, shortened: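 Mice carrying the transplanted tumor received test compound or vehicle. Survival was recorded in each group, and the value is the treated-group measurement divided by that of the vehicle-treated control group.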

[1] = dose: 50.0 mg/kg/injection, schedule: Q01DX009 (ip), vehicle: saline
[2] = dose: 100.0 mg/kg/injection, schedule: Q01DX009 (ip), vehicle: saline
[3] = dose: 50.0 mg/kg/injection, schedule: Q01DX005 (ip), vehicle: Klucel (hydroxypropylcellulose) (HPC)
[4] = dose: 100.0 mg/kg/injection, schedule: Q01DX005 (ip), vehicle: Klucel (hydroxypropylcellulose) (HPC)
[5] = dose: 200.0 mg/kg/injection, schedule: Q01DX005 (ip), vehicle: Klucel (hydroxypropylcellulose) (HPC)
[6] = dose: 50.0 mg/kg/injection, schedule: Q01DX009 (ip), vehicle: saline with Tween-80
[7] = dose: 100.0 mg/kg/injection, schedule: Q01DX009 (ip), vehicle: saline with Tween-80
[8] = dose: 200.0 mg/kg/injection, schedule: Q01DX009 (ip), vehicle: saline with Tween-80

COC(=O)C1=C(C)NC(c2ccc(OC)cc2OC)C(C(=O)OC)=C1C (stereo not drawn) was tested, and the T/C (dose: 60.0 mg/kg/injection, schedule: Q01DX005 (ip), vehicle: saline with Tween-80) was 105 % of control, the T/C (dose: 120.0 mg/kg/injection, schedule: Q01DX005 (ip), vehicle: saline with Tween-80) was 102 % of control and the T/C (dose: 240.0 mg/kg/injection, schedule: Q01DX005 (ip), vehicle: saline with Tween-80) was 97 % of control.

With C/C(CC(O)(c1ccccc1)c1ccccc1)=N/Sc1ccccc1 the T/C (dose: 100.0 mg/kg/injection, schedule: Q04DX003 (ip), vehicle: Klucel (hydroxypropylcellulose) (HPC)) was 100 % of control, the T/C (dose: 200.0 mg/kg/injection, schedule: Q04DX003 (ip), vehicle: Klucel (hydroxypropylcellulose) (HPC)) was 92 % of control and the T/C (dose: 400.0 mg/kg/injection, schedule: Q04DX003 (ip), vehicle: Klucel (hydroxypropylcellulose) (HPC)) was 94 % of control.

For OC1C(O)C(O)C(O)C(O)C1O (stereo not drawn), the T/C [1] was 97 % of control, the T/C [2] was 96 % of control and the T/C (dose: 200.0 mg/kg/injection, schedule: Q01DX009 (ip), vehicle: saline) was 100 % of control. For the same compound, the T/C (dose: 400.0 mg/kg/injection, schedule: Q01DX009 (ip), vehicle: saline) was 96 % of control.

Cc1nc(N(C)C)[nH]c(=O)c1N=Nc1ccc(Cl)cc1 was tested, and the T/C [3] was 105 % of control, the T/C [4] was 114 % of control and the T/C [5] was 105 % of control.

CCOc1ccc(C[Se][Se]Cc2ccc(OCC)cc2)cc1 was tested, and the T/C (dose: 50.0 mg/kg/injection, schedule: Q01DX009 (ip), vehicle: Klucel (hydroxypropylcellulose) (HPC)) was 109 % of control and the T/C (dose: 100.0 mg/kg/injection, schedule: Q01DX009 (ip), vehicle: Klucel (hydroxypropylcellulose) (HPC)) was 91 % of control.

For Cc1[nH]c(C(=O)NN)c(C)c1C(=O)NN, the T/C (dose: 25.0 mg/kg/injection, schedule: Q01DX009 (ip), vehicle: saline with Tween-80) was 91 % of control, the T/C [6] was 95 % of control and the T/C [7] was 91 % of control.

For Nc1nc(Cl)c(Cl)nc1N, the T/C [6] was 110 % of control, the T/C (dose: 50.0 mg/kg/injection, schedule: Q04DX003 (ip), vehicle: saline with Tween-80) was 100 % of control and the T/C [7] was 105 % of control. The T/C (dose: 100.0 mg/kg/injection, schedule: Q04DX003 (ip), vehicle: saline with Tween-80) was 100 % of control, the T/C [8] was 110 % of control and the T/C (dose: 200.0 mg/kg/injection, schedule: Q04DX003 (ip), vehicle: saline with Tween-80) was 95 % of control.

In the case of Cn1nc(C(N)=O)c(=O)[nH]c1=S, the T/C (dose: 50.0 mg/kg/injection, schedule: Q01DX005 (ip), vehicle: saline with Tween-80) is reported as 100 % of control, the T/C (dose: 100.0 mg/kg/injection, schedule: Q01DX005 (ip), vehicle: saline with Tween-80) is reported as 99 % of control and the T/C (dose: 200.0 mg/kg/injection, schedule: Q01DX005 (ip), vehicle: saline with Tween-80) is reported as 103 % of control.

For c1ccc(CSCCOCCOCCSCc2ccccn2)nc1, the T/C [3] was 101 % of control, the T/C [4] was 108 % of control and the T/C [5] was 104 % of control.

For CC(=NC(C)(C)C)N1CCCCC1, the T/C (dose: 25.0 mg/kg/injection, schedule: Q01DX009 (ip), vehicle: saline) was 106 % of control, the T/C [1] was 100 % of control and 90 % of control and the T/C [2] was 105 % of control.

For CC1=NN(c2ccccc2)C/C1=N\O, the T/C [3] was 103 % of control and the T/C [4] was 102 % of control.

For O/N=C1/CCN2CCCc3cccc1c32, the T/C (dose: 132.0 mg/kg/injection, schedule: Q01DX001 (ip), vehicle: saline with Tween-80) was 95 % of control, the T/C (dose: 200.0 mg/kg/injection, schedule: Q01DX001 (ip), vehicle: saline with Tween-80) was 100 % of control and the T/C (dose: 300.0 mg/kg/injection, schedule: Q01DX001 (ip), vehicle: saline with Tween-80) was 100 % of control.

For CC(=O)OC1CC2CCC1(CC(=O)c1ccccc1)C2(C)C (stereo not drawn), the T/C [6] was 96 % of control, the T/C [7] was 92 % of control and the T/C [8] was 100 % of control.

With CCC(=O)C(C)C(=O)CCC(=O)Nc1cc(Cl)ccc1Cl (stereo not drawn) the T/C (dose: 60.0 mg/kg/injection, schedule: Q01DX005 (ip), vehicle: saline) was 101 % of control, the T/C (dose: 120.0 mg/kg/injection, schedule: Q01DX005 (ip), vehicle: saline) was 103 % of control and the T/C (dose: 240.0 mg/kg/injection, schedule: Q01DX005 (ip), vehicle: saline) was 103 % of control.

With Cc1c2oc3c(C)c(N)cc(C(=O)NC4C(=O)NC(C(C)C)C(=O)N5CCCC5C(=O)N(C)CC(=O)N(C)C(C(C)C)C(=O)OC4C)c3nc-2c(C(=O)NC2C(=O)NC(C(C)C)C(=O)N3CCCC3C(=O)N(C)CC(=O)N(C)C(C(C)C)C(=O)OC2C)c(N)c1=O (stereo not drawn) the T/C (dose: 0.01 mg/kg/injection, schedule: Q01DX009 (ip), vehicle: Klucel (hydroxypropylcellulose) (HPC)) was 102 % of control, the T/C (dose: 0.02 mg/kg/injection, schedule: Q01DX009 (ip), vehicle: Klucel (hydroxypropylcellulose) (HPC)) was 110 % of control and the T/C (dose: 0.04 mg/kg/injection, schedule: Q01DX009 (ip), vehicle: Klucel (hydroxypropylcellulose) (HPC)) was 115 % of control. The T/C (dose: 0.08 mg/kg/injection, schedule: Q01DX009 (ip), vehicle: Klucel (hydroxypropylcellulose) (HPC)) was 93 % of control and the T/C (dose: 0.3 mg/kg/injection, schedule: Q01DX009 (ip), vehicle: Klucel (hydroxypropylcellulose) (HPC)) was 190 % of control.

For O=S(=O)(O)c1ccc2c(-c3ccccc3)c3ccccc3c(-c3ccccc3)c2c1, the T/C (dose: 60.0 mg/kg/injection, schedule: Q01DX005 (ip), vehicle: Klucel (hydroxypropylcellulose) (HPC)) was 99 % of control, the T/C (dose: 120.0 mg/kg/injection, schedule: Q01DX005 (ip), vehicle: Klucel (hydroxypropylcellulose) (HPC)) was 100 % of control and the T/C (dose: 240.0 mg/kg/injection, schedule: Q01DX005 (ip), vehicle: Klucel (hydroxypropylcellulose) (HPC)) was 98 % of control.

In the case of CNC(=O)OCc1c(COC(=O)NC)c(-c2ccc(Cl)cc2)n(C)c1-c1ccccc1, the T/C (dose: 12.5 mg/kg/injection, schedule: Q01DX009 (ip), vehicle: distilled water + Tween-80) is reported as 154 % of control, the T/C (dose: 25.0 mg/kg/injection, schedule: Q01DX009 (ip), vehicle: distilled water + Tween-80) is reported as 157 % of control and 172 % of control and the T/C (dose: 50.0 mg/kg/injection, schedule: Q01DX009 (ip), vehicle: distilled water + Tween-80) is reported as 181 % of control.

In the case of CNC(=O)CC(C(=O)O)N(C)C (stereo not drawn), the T/C (dose: 50.0 mg/kg/injection, schedule: Q01DX009 (ip), vehicle: water) is reported as 98 % of control, the T/C (dose: 100.0 mg/kg/injection, schedule: Q01DX009 (ip), vehicle: water) is reported as 106 % of control and the T/C (dose: 200.0 mg/kg/injection, schedule: Q01DX009 (ip), vehicle: water) is reported as 107 % of control.

In the case of NNc1nnnc2c1sc1ccccc12, the T/C (dose: 100.0 mg/kg/injection, schedule: Q01DX001 (ip), vehicle: saline with Tween-80) is reported as 89 % of control and the T/C (dose: 400.0 mg/kg/injection, schedule: Q01DX001 (ip), vehicle: saline with Tween-80) is reported as 93 % of control.

In the case of NC(N)=NCCCC(N)C(=O)N1CCCC1C(=O)N1CCCC1C(=O)NC(CCCN=C(N)N)C(=O)O (stereo not drawn) (H-RPPR-OH; configuration not given here), the T/C (dose: 12.5 mg/kg/injection, schedule: Q01DX005 (ip), vehicle: saline) is reported as 100 % of control, the T/C (dose: 25.0 mg/kg/injection, schedule: Q01DX005 (ip), vehicle: saline) is reported as 105 % of control and the T/C (dose: 50.0 mg/kg/injection, schedule: Q01DX005 (ip), vehicle: saline) is reported as 101 % of control.

For c1ccc([Se][Se]c2ccccn2)nc1, the T/C (dose: 6.25 mg/kg/injection, schedule: Q01DX005 (ip), vehicle: Klucel (hydroxypropylcellulose) (HPC)) was 101 % of control, the T/C (dose: 12.5 mg/kg/injection, schedule: Q01DX005 (ip), vehicle: Klucel (hydroxypropylcellulose) (HPC)) was 103 % of control and the T/C (dose: 25.0 mg/kg/injection, schedule: Q01DX005 (ip), vehicle: Klucel (hydroxypropylcellulose) (HPC)) was 101 % of control.

With COC(=O)C(NC(=O)C(NC(=O)c1c2nc3c(C(=O)NC(C(=O)NC(C(=O)OC)C(C)C)C(C)O)ccc(C)c3oc-2c(C)c(=O)c1N)C(C)O)C(C)C (stereo not drawn) the T/C (dose: 0.05 mg/kg/injection, schedule: Q01DX009 (ip), vehicle: water) was 117 % of control, the T/C (dose: 0.1 mg/kg/injection, schedule: Q01DX009 (ip), vehicle: water) was 101 % of control and the T/C (dose: 0.2 mg/kg/injection, schedule: Q01DX009 (ip), vehicle: water) was 99 % of control. The T/C (dose: 0.4 mg/kg/injection, schedule: Q01DX009 (ip), vehicle: water) was 100 % of control, the T/C (dose: 0.8 mg/kg/injection, schedule: Q01DX009 (ip), vehicle: water) was 99 % of control and the T/C (dose: 1.6 mg/kg/injection, schedule: Q01DX009 (ip), vehicle: water) was 102 % of control and 90 % of control. For the same compound, the T/C (dose: 3.2 mg/kg/injection, schedule: Q01DX009 (ip), vehicle: water) was 92 % of control, the T/C (dose: 6.4 mg/kg/injection, schedule: Q01DX009 (ip), vehicle: water) was 99 % of control and the T/C (dose: 12.8 mg/kg/injection, schedule: Q01DX009 (ip), vehicle: water) was 101 % of control.

For CC(=O)C(c1ccccc1)[N+](C)(C)C (stereo not drawn), the T/C (dose: 25.0 mg/kg/injection, schedule: Q04DX003 (ip), vehicle: other) was 100 % of control, the T/C (dose: 50.0 mg/kg/injection, schedule: Q04DX003 (ip), vehicle: other) was 100 % of control and the T/C (dose: 100.0 mg/kg/injection, schedule: Q04DX003 (ip), vehicle: other) was 98 % of control.
